We go through 2 compounds from patent US7915270B2, “Oxazole ketones as modulators of fatty acid amide hydrolase” (The Scripps Research Institute, priority 2006, dated 2011).

Read-outs that look alike come from different tables or passages of the source.

Assay [1] addresses T1, FAAH (Rattus norvegicus, UniProt P97612).
T1 sequence (P97612 1-579): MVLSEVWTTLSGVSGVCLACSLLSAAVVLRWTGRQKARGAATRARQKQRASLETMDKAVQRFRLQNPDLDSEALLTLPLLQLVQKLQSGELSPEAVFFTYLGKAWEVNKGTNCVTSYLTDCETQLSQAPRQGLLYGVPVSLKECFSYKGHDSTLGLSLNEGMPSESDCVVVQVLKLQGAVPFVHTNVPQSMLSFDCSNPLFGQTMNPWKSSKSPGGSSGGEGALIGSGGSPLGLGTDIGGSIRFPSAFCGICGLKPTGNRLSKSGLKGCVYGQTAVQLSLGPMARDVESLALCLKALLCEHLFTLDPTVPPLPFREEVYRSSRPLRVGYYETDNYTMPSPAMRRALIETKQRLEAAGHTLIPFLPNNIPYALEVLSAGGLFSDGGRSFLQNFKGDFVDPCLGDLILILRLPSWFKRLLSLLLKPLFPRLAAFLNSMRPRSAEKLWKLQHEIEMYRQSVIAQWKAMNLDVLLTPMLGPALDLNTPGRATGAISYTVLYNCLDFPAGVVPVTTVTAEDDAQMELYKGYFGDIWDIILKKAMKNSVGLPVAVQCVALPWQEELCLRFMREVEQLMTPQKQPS
The assay can be described thus: Assay Method 1A: FAAH enzyme assay, 14C-oleamide hydrolysis, solubilized liver plasma membrane extract.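 Also: ki obtained by Dixon analysis, taking the x-intercept of inhibitor concentration versus reciprocal rate plots at fixed substrate level and correcting for substrate concentration relative to Km.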
Description: Linear least squares fits were used for all reaction progress curves and R^2 values were consistently >0.97. […] Ki values were determined by the Dixon Method (x-intercepts of weighted linear fits of [I] versus 1/rate plots at constant substrate concentration, which were converted to Ki values using the formula Ki=−xint/[1+[S]/Km]).

Assay [2] has as its target T2, FAAH (Homo sapiens, UniProt O00519).
T2 sequence (O00519 1-579): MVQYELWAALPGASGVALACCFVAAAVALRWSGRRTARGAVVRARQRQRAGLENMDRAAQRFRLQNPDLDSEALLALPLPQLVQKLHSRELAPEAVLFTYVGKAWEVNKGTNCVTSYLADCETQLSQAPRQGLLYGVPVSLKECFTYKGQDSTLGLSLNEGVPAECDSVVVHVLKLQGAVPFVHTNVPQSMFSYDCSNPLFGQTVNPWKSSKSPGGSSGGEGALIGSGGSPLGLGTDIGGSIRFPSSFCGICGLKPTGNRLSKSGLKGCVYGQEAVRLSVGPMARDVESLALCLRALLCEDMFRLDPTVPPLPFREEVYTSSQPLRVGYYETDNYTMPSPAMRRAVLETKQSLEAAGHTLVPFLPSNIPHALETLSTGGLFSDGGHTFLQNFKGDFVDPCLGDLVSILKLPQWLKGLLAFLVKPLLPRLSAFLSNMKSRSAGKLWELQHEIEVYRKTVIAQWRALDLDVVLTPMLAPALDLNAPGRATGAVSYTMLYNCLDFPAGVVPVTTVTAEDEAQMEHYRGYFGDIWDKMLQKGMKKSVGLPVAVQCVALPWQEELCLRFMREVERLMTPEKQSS
The assay can be described thus: Assay Method 1B: FAAH assay, 3H-anandamide hydrolysis in cell homogenate (T84 or SK-N-MC cells transfected with human FAAH). It counts as biochemical. Also noted: expressed in transfected cells. Conditions: 3H-AEA 80 nM, rt 1 h, pH 9.

As usually defined, the Ki is the equilibrium dissociation constant of an inhibitor or competing ligand from its target. The term IC50 denotes the point on the concentration scale where inhibition reaches its midpoint. Low values mean greater potency in that assay, high ones weaker potency in that assay. `O=C(O)c1cccc(-c2cnc(C(=O)CCCCCCc3ccccc3)o2)n1` [Example 37, 6-(2-(7-Phenylheptanoyl)oxazol-5-yl)picolinic acid]: the Ki at FAAH [1] (read-out: Assay 1A Ki, liver plasma membrane extract containing FAAH, 14C-oleamide, pH 9.0, 20-23 °C, Dixon method) was 20 nM. At FAAH [2], this compound displayed an IC50 of 0.4 nM.

For the compound `O=C(O)c1ccc(-c2cnc(C(=O)CCCCCCc3ccccc3)o2)nc1` [Example 38, 6-(2-(7-Phenylheptanoyl)oxazol-5-yl)nicotinic acid], on FAAH [1], the Ki came to 7 nM. At FAAH [2], this compound came in with an IC50 of 0.2 nM.
